Values quoted from earlier work, collected in US20040057977A1, “Water-based pest bait compositions having water-sensitive insecticides and methods of making and use thereof” (priority 1999, published 2004).

Tests used:
cockroaches = conditions: in vivo
[1] = in vivo

Q: Which results are given for `OB(O)O` [boric acid]?
A: time to kill cockroaches (cockroaches): roughly one week; eye and lung irritation [1]: slight eye and lung irritation

Q: With `COP(=O)(NC(C)=O)SC` (stereo not drawn) [Acephate, O,S-dimethyl acetylphosphoramidothioate] as the compound, how does the “time to kill cockroaches” value (cockroaches) read?
A: The value was “within about two hours”.
